Experimental data reported in patent US8791132B2, “Compounds and methods for treatment of hypertension” (Medivation Technologies, Inc., priority 2011, dated 2014).
Values joined by “and” are separate entries in the source; they are usually repeats but may differ in a detail not shown here. Equal values may be shown once.

How the values were obtained:
[1] = molecular target: T1, human recombinant adrenergic α2B receptor (Homo sapiens, UniProt P18089); test: Radioligand binding, adrenergic α2B ([3H]Rauwolscine); settings: 0.1 μM compound; for inhibition at 0.1 µM: read-out: Percentage inhibition of ligand binding, Adrenergic α2B
T1 construct: expressed in transfected cells; host or cells: CHO-K1
T1 sequence (P18089 1-450): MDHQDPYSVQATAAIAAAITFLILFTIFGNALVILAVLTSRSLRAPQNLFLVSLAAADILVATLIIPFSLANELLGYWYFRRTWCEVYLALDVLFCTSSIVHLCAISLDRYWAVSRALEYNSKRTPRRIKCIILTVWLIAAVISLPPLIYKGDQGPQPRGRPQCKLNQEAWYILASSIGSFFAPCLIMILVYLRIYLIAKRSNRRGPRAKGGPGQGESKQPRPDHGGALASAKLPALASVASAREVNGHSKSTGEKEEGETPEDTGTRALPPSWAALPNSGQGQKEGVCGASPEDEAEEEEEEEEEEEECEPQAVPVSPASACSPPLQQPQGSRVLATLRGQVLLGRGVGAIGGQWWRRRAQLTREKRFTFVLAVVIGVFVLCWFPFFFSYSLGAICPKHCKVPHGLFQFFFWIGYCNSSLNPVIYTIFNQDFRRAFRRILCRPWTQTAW
Summary of the method: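 Receptor expressed in CHO-K1 cells, assayed in 50 mM Tris-HCl pH 7.4 with 12.5 mM MgCl2, 1 mM EDTA and 0.2% BSA. Compounds were incubated with 2.5 nM [3H]Rauwolscine for 60 min at 25° C; 10 μM Prazosin defined non-specific binding. Filter counting gave percent inhibition of specific binding.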

[2] = molecular target: T2, human recombinant adrenergic α2A receptor (Homo sapiens, UniProt P08913); test: Radioligand binding, adrenergic α2A ([3H]MK-912); settings: 0.1 μM compound; for inhibition at 0.1 µM: read-out: Percentage inhibition of ligand binding, Adrenergic α2A
T2 construct: expressed in transfected cells; host or cells: insect Sf9 cells
T2 sequence (P08913 1-465): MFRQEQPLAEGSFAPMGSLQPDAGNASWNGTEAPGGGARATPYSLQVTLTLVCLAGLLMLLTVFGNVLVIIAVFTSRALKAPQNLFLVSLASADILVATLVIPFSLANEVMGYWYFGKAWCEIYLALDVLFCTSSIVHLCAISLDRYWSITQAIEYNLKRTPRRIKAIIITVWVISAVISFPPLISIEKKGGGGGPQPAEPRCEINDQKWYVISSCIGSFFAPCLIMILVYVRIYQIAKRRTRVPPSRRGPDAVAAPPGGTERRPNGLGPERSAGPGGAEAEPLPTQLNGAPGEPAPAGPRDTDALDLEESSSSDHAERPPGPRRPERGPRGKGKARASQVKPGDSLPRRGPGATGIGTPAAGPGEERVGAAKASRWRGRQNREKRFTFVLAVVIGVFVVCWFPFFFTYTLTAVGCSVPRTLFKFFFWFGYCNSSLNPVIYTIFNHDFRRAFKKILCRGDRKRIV
Summary of the method: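 Receptor expressed in insect Sf9 cells, assayed in 50 mM Tris-HCl pH 7.4 with 12.5 mM MgCl2 and 2 mM EDTA. Compounds incubated with 1 nM [3H]MK-912 for 60 min at 25 °C; nonspecific binding defined with 10 μM WB-4101. Filter-bound radioactivity counted; values are percent inhibition of specific binding.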

[3] = molecular target: T3, rat adrenergic α1B receptor (Rattus norvegicus, UniProt P15823); test: Radioligand binding, adrenergic α1B ([3H]Prazosin); settings: 0.1 μM compound; for inhibition at 0.1 µM: read-out: Percentage inhibition of ligand binding, Adrenergic α1B
T3 construct: rat adrenergic α1B receptor obtained from Wistar Rat liver; from tissue; host or cells: Wistar rat liver
T3 sequence (P15823 1-515): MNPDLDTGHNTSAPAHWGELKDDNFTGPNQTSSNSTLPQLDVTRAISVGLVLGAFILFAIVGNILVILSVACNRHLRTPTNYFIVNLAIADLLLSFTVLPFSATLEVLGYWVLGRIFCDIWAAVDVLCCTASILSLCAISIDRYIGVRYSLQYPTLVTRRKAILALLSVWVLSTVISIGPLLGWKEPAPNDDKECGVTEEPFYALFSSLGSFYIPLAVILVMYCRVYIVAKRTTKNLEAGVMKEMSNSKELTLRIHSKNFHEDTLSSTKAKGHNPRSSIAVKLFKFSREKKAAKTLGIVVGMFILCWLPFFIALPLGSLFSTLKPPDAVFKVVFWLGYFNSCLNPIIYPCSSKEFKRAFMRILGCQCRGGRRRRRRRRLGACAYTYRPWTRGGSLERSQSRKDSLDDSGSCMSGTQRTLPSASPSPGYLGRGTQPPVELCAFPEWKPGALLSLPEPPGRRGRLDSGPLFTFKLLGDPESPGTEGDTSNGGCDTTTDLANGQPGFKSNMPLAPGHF
Summary of the method: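 Filter binding with Wistar rat liver α1B preparation: test compound plus 0.25 nM [3H]prazosin, 1 h at 25° C in modified Tris-HCl buffer pH 7.4.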

[4] = molecular target: T4, human recombinant adrenergic α1D receptor (Homo sapiens, UniProt P25100); test: Radioligand binding, adrenergic α1D ([3H]Prazosin); settings: 0.1 μM compound; for inhibition at 0.1 µM: read-out: Percentage inhibition of ligand binding, Adrenergic α1D
T4 construct: expressed in transfected cells; host or cells: HEK-293
T4 sequence (P25100 1-572): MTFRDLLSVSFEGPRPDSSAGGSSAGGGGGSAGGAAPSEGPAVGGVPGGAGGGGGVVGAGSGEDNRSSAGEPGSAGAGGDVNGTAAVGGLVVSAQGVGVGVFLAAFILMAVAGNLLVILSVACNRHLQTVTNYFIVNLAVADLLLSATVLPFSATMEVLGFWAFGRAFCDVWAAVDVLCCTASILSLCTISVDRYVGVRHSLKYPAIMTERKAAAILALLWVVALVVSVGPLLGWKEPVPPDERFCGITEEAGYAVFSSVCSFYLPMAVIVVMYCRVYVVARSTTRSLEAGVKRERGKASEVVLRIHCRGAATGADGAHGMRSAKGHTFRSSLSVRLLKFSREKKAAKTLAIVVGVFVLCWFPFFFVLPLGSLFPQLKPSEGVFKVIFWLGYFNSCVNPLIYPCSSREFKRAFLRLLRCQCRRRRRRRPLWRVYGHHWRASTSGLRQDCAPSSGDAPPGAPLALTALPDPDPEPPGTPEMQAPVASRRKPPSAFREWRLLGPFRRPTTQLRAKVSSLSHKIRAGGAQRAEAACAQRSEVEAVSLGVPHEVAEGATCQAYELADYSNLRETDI
Experimental: Compounds were incubated with 0.6 nM [3H]Prazosin for 60 min at 25° C. Non-specific binding was estimated in the presence of 10 μM phentolamine. Receptor proteins were filtered and washed, the filters were then counted to determine [3H]Prazosin specifically bound. […] Biochemical assay results are presented as the percent inhibition of specific binding in Table B1.

| SMILES | inhibition at 0.1 µM [1] | inhibition at 0.1 µM [2] | inhibition at 0.1 µM [3] | inhibition at 0.1 µM [4] | Percentage inhibition of ligand binding, Adrenergic α2B ([1]; 0.1 µM) | Percentage inhibition of ligand binding, Adrenergic α2A ([2]; 0.1 µM) | Percentage inhibition of ligand binding, Adrenergic α1B ([3]; 0.1 µM) | Percentage inhibition of ligand binding, Adrenergic α1D ([4]; 0.1 µM) |
| --- | --- | --- | --- | --- | --- | --- | --- | --- |
| C/C(=C/n1c2c(c3cc(C)ccc31)CCN(C)CC2)c1cccc(F)c1 [compound 249] | 98% | 98% | 95% | 82% | – | – | – | – |
| C/C(=C\n1c2c(c3cc(C)ccc31)CN(C)CC2)c1cccnc1 [compound 250] | 105% | 62% | 37% | 22% | – | – | – | – |
| COc1ccc(/C(C)=C/n2c3c(c4cc(C)ccc42)CCN(C)CC3)cc1 [compound 251] | 101% | 85% | 89% | 53% | – | – | – | – |
| C/C(=C/n1c2c(c3cc(Cl)ccc31)CN(C)CC2)c1cc(F)c(F)cc1Cl [compound 252] | 52% | 66% | 36% | 13% | – | – | – | – |
| CN1CCc2c(c3cc(Cl)c(Cl)cc3n2CC(C)(O)c2ccncc2)C1 (stereo not shown) [compound 253] | – | 44% | 54% | 18% | 64% and 86% | 64% | 55% | 24% |
| Cc1ccc2c(c1)c1c(n2CC(C)c2ccncc2)CCN(C)C1 (stereo not shown) [compound 255] | 96% | 63% | 55% | 43% | – | – | – | – |
| Cc1ccc2c(c1)c1c(n2C#Cc2cccc(N(C)C)c2)CCN(C)C1 [compound 256] | 58% | 55% | 47% | 23% | – | – | – | – |
| C/C(=C\n1c2c(c3cc(Cl)ccc31)CN(C)C(C)C2)c1ccc(C)nc1 (stereo not shown) [compound 257] | 100% | 84% | 51% | 24% | – | – | – | – |
| C/C(=C/n1c2c(c3cc(C)ccc31)CN(C)CC2)c1ccc(F)cc1F [compound 258] | 99% | 94% | 93% | 74% | – | – | – | – |
| C/C(=C\n1c2c(c3cc(C)ccc31)CN(C)CC2)c1ccccn1 [compound 259] | 98% | 82% | 71% | 53% | – | – | – | – |
| Cc1ccc2c(c1)c1c(n2CC(C)(C)c2ccncc2)CCN(C)C1 [compound 260] | 92% | 54% | 45% | 26% | – | – | – | – |

The next lines start with the values.

| inhibition at 0.1 µM [1] | inhibition at 0.1 µM [2] | inhibition at 0.1 µM [3] | inhibition at 0.1 µM [4] | Percentage inhibition of ligand binding, Adrenergic α2B ([1]; 0.1 µM) | Percentage inhibition of ligand binding, Adrenergic α2A ([2]; 0.1 µM) | Percentage inhibition of ligand binding, Adrenergic α1B ([3]; 0.1 µM) | Percentage inhibition of ligand binding, Adrenergic α1D ([4]; 0.1 µM) | SMILES |
| --- | --- | --- | --- | --- | --- | --- | --- | --- |
| 84% | 84% | 50% | 30% | – | – | – | – | C/C(=C\n1c2c(c3cc(C)ccc31)CN(C)CC2)C1CCCCC1 [compound 261] |
| 74% | 87% | 52% | 35% | – | – | – | – | C/C=C(/c1ccccc1)n1c2c(c3cc(C)ccc31)CN(C)CC2 [compound 262] |
| 54% | 61% | 1% | 6% | – | – | – | – | Cc1ccc2c(c1)c1c(n2CC(O)(c2ccccc2)c2ccccc2)CCN(C)C1 [compound 263] |
| 82% | 81% | 79% | 46% | – | – | – | – | Cc1ccc2c(c1)c1c(n2C#Cc2ccncc2)CCN(C)C1 [compound 264] |
| 70% | 67% | 50% | 30% | – | – | – | – | C/C(=C\c1ccccc1)n1c2c(c3cc(C)ccc31)CN(C)CC2 [compound 265] |
| 92% | 62% | 63% | 72% | – | – | – | – | COc1ccc(/C(C)=C/n2c3c(c4cc(C)ccc42)CN(C)CC3)cn1 [compound 266] |
| 85% | 63% | 7% | 26% | – | – | – | – | Cc1ccc2c(c1)c1c(n2C=C(c2ccccc2)c2ccccc2)CCN(C)C1 [compound 267] |
| 94% | 90% | 57% | 39% | – | – | – | – | CSc1cccc(/C(C)=C/n2c3c(c4cc(C)ccc42)CN(C)CC3)c1 [compound 268] |
| 83% | 61% | 36% | 44% | – | – | – | – | COc1cc(/C(C)=C/n2c3c(c4cc(C)ccc42)CN(C)CC3)ccn1 [compound 269] |
| 76% | 96% | 50% | 66% | – | – | – | – | C/C(=C\n1c2c(c3cc(C)ccc31)CN(C)CC2)c1ccc2ccccc2c1 [compound 270] |
| 71% | 97% | 65% | 83% | – | – | – | – | C/C(=C/n1c2c(c3cc(C)ccc31)CN(C)CC2)c1ccc2ccccc2c1 [compound 271] |
| 89% | 67% | 88% | 71% | – | – | – | – | C/C(=C/n1c2c(c3cc(C)ccc31)CN(C)CC2)c1ccnn1C [compound 273] |
| 27% | 68% | 28% | 25% | – | – | – | – | C=CCC1(C)CN(C)Cc2c1n(/C=C(\C)c1ccc(F)cc1)c1ccc(C)cc21 (stereo not shown) [compound 274, 4-allyl-5-[2-(4-fluoro-phenyl)-propenyl]-2,4,8-trimethyl-2,3,4,5-tetrahydro-1H-pyrido[4,3-b]indole] |
| 94% | 51% | 75% | 61% | – | – | – | – | C/C(=C/n1c2c(c3cc(C)ccc31)CN(C)CC2)c1cnn(C)c1 [compound 275] |
